Literature values, collected in patent US20110301131A1, “Drug Delivery Implants and Processes for Their Preparation” (priority 2008, published 2011).

Details: bupivacaine used in regional anaesthesia

Half-life: about 3 hours
SMILES: CCCCN1CCCCC1C(=O)Nc1c(C)cccc1C (stereo not shown) [bupivacaine]
